Data reported in patent US20080138437A1, “Antitumor Agent” (priority 2004, published 2008).
Counter-ions that a name gives are not always drawn. Like-named read-outs stand apart in the source and are kept apart here.

Legend:
[1] = test system: 15 types of human cancer cells; assay: Cell growth inhibition test, MTT, average GI 50; format: cell-based; conditions: average of 15 human cancer cell types, 48 hours exposure
Experimental: Appropriate amounts of each of the human cancer cells suspended in 5% fetal bovine serum-supplemented medium were plated into a 96-well plate, and allowed to adhere to the wells in a 37° C. CO2 incubator overnight.
These cancer cells were exposed to each anticancer agent for 48 hours. Cell growth was assayed by MTT. Absorbance of the control well (C) and the test well (T) was measured at 550 nm.
The absorbance of the test well immediately after adding the drug (TO) was also measured. Using these measured values, GI 50 of each drug was calculated, and the drug concentration at that time was obtained. For comparison, a similar test was performed for each of the anticancer agents (Comparative Tests 4-1 to 4-7).

in vivo [2] = conditions: BDF1, mouse, sc
A549 lung cancer cells = assay: Antitumor test, transplanted tumor in nude mice; format: in vivo, human; conditions: control, drug without hydroxyapatite adsorption
Text: (§1) (Experimental Test 5-1 to 5-5).
(§2) Female nude mice (7 weeks old, 16 to 22 g) with a BALB/c genetic background were used for the tests. Human cancer cells used for the tests were GCIY stomach cancer cells, HCT-15 colon cancer cells, A549 lung cancer cells, and OVCAR-3 ovarian cancer cells. Human cancer cells were subcutaneously transplanted into nude mice, tumor lumps were formed, and these carcinomas were used for the tests.
(§3) Aseptically collected tumors were sliced into tumors of 3×3×3 mm, and then subcutaneously transplanted into a new nude mouse. When the tumors reached a volume of 100 to 300 mm^3, the animals were arbitrarily divided into groups of six (Day 0). […] Intravascular administration was the administration route for all.
(§4) After administration, between Days 24 to 31, the length (L) and width (W) of the tumor lump of the animal were measured twice a week, and the tumor volume (TV) was calculated according to the following formula: TV=(L×W^2)/2. Antitumor effect was determined at Day 14. The relative tumor volume (RTV) was obtained by the following formula: RTV=TV14/TV0, using values of the tumor volume at Day 0 and Day 14 (referred to as TV0 and TV14). Antitumor effect was evaluated as the tumor regression rate at Day 14 (T/C%). Herein, T/C %=100×(average RTV of the treated group)/(RTV of the control group).
(§5) As a control, each drug was tested without hydroxyapatite adsorption (Comparative Tests 5-10 to 5-14).

[3] = test system: GCIY stomach cancer cells; assay: Antitumor test, transplanted tumor in nude mice; format: in vivo, human; conditions: control, drug without hydroxyapatite adsorption
Text: as §1, §2, §3, §4, §5

[4] = test system: HCT-15 colon cancer cells; assay: Antitumor test, transplanted tumor in nude mice; format: in vivo, human; conditions: control, drug without hydroxyapatite adsorption
Text: as §1, §2, §3, §4, §5

[5] = test system: OVCAR-3 ovarian cancer cells; assay: Antitumor test, transplanted tumor in nude mice; format: in vivo, human; conditions: control, drug without hydroxyapatite adsorption
Text: as §1, §2, §3, §4, §5

C57BL/6 male mouse = conditions: one-time, 14 days observation
in vivo [6] = conditions: male, C57BL/6, mouse
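For deaths versus administered animals in this document: mice given a single dose and followed for 14 days, with deaths tallied, LD50 derived from the doses given and the resulting death counts.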

Compound	GI50 [1] [nM]	LD50 (in vivo [2]) [mg/kg]	Regression rate of transplanted cancer (T/C %) at Day 14 (A549 lung cancer cells) [%]	Regression rate of transplanted cancer (T/C %) at Day 14 [3] [%]	Regression rate of transplanted cancer (T/C %) at Day 14 [4] [%]	Regression rate of transplanted cancer (T/C %) at Day 14 [5] [%]	deaths versus administered animals (C57BL/6 male mouse; 50 mg/kg intravascular)	deaths versus administered animals (C57BL/6 male mouse; 100 mg/kg intravascular)	deaths versus administered animals (C57BL/6 male mouse; 150 mg/kg intravascular)	deaths versus administered animals (C57BL/6 male mouse; 200 mg/kg intravascular)	deaths versus administered animals (C57BL/6 male mouse; 250 mg/kg intravascular)	deaths versus administered animals (C57BL/6 male mouse; 300 mg/kg intravascular)	deaths versus administered animals (C57BL/6 male mouse; 350 mg/kg intravascular)	deaths versus administered animals (C57BL/6 male mouse; 400 mg/kg intravascular)	LD50 (in vivo [6]) [mg/kg]	deaths versus administered animals (C57BL/6 male mouse; 1.0 mg/kg intravascular)	deaths versus administered animals (C57BL/6 male mouse; 1.5 mg/kg intravascular)	deaths versus administered animals (C57BL/6 male mouse; 2.0 mg/kg intravascular)	deaths versus administered animals (C57BL/6 male mouse; 3.0 mg/kg intravascular)	deaths versus administered animals (C57BL/6 male mouse; 3.5 mg/kg intravascular)
COc1cccc2c1C(=O)c1c(O)c3c(c(O)c1C2=O)C[C@@](O)(C(=O)CO)C[C@@H]3O[C@H]1C[C@H](N)[C@H](O)[C@H](C)O1 [Doxorubicin]	72	10																		
O=c1[nH]cc(F)c(=O)[nH]1 [Fluorouracil]	36800		117	69	59	74	0/5	1/5	1/5	2/5	2/6	3/5	5/6	6/6	244					
Cc1ncc(CNC(=O)N(CCCl)N=O)c(N)n1 [Nimustine hydrochloride]		50																		
CC[C@]1(O)C[C@H]2CN(CCc3c([nH]c4ccccc34)[C@@](C(=O)OC)(c3cc4c(cc3OC)N(C=O)[C@H]3[C@@](O)(C(=O)OC)[C@H](OC(C)=O)[C@]5(CC)C=CCN6CC[C@]43[C@@H]65)C2)C1 [Vincristine sulfate]	3.6		76	81	101	79									1.98	0/5	2/5	3/8	7/8	8/8
